Data taken from US20130172324A1, “METHOD FOR TREATING CARDIOVASCULAR DISEASES USING RHO KINASE INHIBITOR COMPOUNDS” (priority 2008, published 2013).
pIC50: −log10 of the molar value. “Also recorded” adds a separate entry of the source.

Experiments:
[1] = tested on: ova-sensitized, ova-challenged mice; assay: Prevention of airway hyperreactivity development, anti-inflammatory dosing paradigm (Penh); assay type: in vivo, mouse; settings: for airway hyperreactivity: intratracheal once a day, days 27 to 30 (1.091) or 27 to 31
[2] = biological target: T1, ERK1 (Homo sapiens, UniProt P27361); assay: Kinase panel screen (KinaseProfiler), ERK1; assay type: biochemical; settings: 10 μM ATP
T1 construct: purchased Upstate, Millipore Bioscience Division (KinaseProfiler service)
T1 sequence (P27361 whole entry): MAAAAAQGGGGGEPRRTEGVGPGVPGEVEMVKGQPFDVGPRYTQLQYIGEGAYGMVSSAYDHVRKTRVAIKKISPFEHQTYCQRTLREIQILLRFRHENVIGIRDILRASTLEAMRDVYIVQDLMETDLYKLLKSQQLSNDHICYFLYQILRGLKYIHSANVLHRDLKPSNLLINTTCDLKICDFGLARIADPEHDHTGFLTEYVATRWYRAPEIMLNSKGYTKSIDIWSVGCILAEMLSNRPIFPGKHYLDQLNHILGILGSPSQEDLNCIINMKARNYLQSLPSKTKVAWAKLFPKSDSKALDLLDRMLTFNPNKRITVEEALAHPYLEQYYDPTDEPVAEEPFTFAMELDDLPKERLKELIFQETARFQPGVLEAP
Protocol: (§1) Compounds of Formulae I and II were examined for activity against a selected panel of kinases using the KinaseProfiler™ enzyme profiling services (Upstate, Millipore Bioscience Division). Percent kinase activity at 10 μM and 1 μM test compound and 10 μM ATP was determined against 40 wild-type recombinant human kinases according to Upstate's standard protocol: ASK1, BTK, CSK, c-RAF, GCK, GSK3β, IKKα, IKKβ, IRAK1, IRAK4, JNK1α1, JNK2α2, JNK3, ERK1, ERK2, MAPKAP-K2, MAPKAP-K3, MEK1, MKK4, MKK6, MKK7β, Mnk2, MSK1, PAK3, PDK1, PRAK, ROCK1, Rsk2, SAPK2a, SAPK2b, SAPK3, SAPK4, SRPK1, SRPK2, Syk, TAK1, TBK1, PI3-Kβ, PI3-Kγ, PI3-Kδ.

[3] = biological target: T2, ERK2 (Homo sapiens, UniProt P28482); assay: Kinase panel screen (KinaseProfiler), ERK2; assay type: biochemical; settings: 10 μM ATP
T2 construct: purchased Upstate, Millipore Bioscience Division (KinaseProfiler service)
T2 sequence (P28482 whole entry): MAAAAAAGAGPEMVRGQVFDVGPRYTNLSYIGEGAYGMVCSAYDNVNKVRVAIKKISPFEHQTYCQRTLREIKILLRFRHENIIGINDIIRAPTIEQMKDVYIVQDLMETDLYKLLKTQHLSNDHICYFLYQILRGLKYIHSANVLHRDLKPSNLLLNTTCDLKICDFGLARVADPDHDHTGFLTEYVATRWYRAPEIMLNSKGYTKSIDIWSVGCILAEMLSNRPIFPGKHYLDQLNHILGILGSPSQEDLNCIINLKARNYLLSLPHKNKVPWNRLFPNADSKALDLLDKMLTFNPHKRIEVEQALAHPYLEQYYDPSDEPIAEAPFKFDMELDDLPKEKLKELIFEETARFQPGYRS
Protocol: as §1

[4] = tested on: rat trachea rings; assay: Tracheal relaxation assay (carbachol precontracted rings); settings: for Percentage of carbachol-induced contraction at 1 μM compound, Avg % / Percentage of carbachol-induced contraction at 10 μM compound, Avg %: 1 μM carbachol; for pIC50: Rattus norvegicus, read-out: IC50 Avg; for Trachael Ring Contraction, %: average percentage of carbachol-induced rat tracheal ring contraction at 1 μM of test compound;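 as to all read-outs here: isometric tension of rat tracheal rings in Krebs buffer with 1 µM indomethacin, compounds added cumulatively at 30 min intervals, basal tension subtracted, fit to Hill equation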
Protocol: The effects of compounds to induce relaxation of pre-contracted rat trachealis were determined. […] Trachea were excised, cleaned of connective tissue and cut into cylindrical segments of 2-3 mm length. Two stainless steel wires were guided through the lumen of the tracheal ring. One wire was fixed in the tissue bath and the other was connected to a force transducer via surgical silk. […] Indomethacin (1 μM), a cyclooxygenase inhibitor, was added to the Krebs buffer and was present throughout the experiments. Contractile tensions were measured using an isometric force transducer (Grass Instruments) and signals were analyzed using specialized software (Chart v5.5, ADInstruments). The preparations were allowed to equilibrate at a resting tension of 0.3 to 0.5 gm prior to two challenges with 60 mM KCl to assess tissue viability. After washing, tissues were treated with 1 μM carbachol for 10 to 15 minutes to induce a contractile response. Test Compounds were added cumulatively to the bath every 30 minutes and reductions in tension were recorded. Basal tension was subtracted from all values and data were reported as a percentage of the maximal carbachol-induced contraction. Data were fit to the Hill equation using GraphPad Prism v5 software.

[5] = Rat oral pharmacokinetics (plasma); assay type: in vivo
Protocol: Plasma (EDTA K2 anticoagulant) was collected from male, cannulated, CD Sprague Dawley rats to determine the pharmacokinetics of formulations containing compound inhibitors of Rho kinase. Each animal was dosed orally with a 4 ml/kg solution or suspension of each test compound in 10 mM acetate buffered saline, pH 4.5 at a final concentration range of 20-30 μmol/kg. Blood was collected at 0.25, 0.5, 1, 2, 4, 6, 8, and 24 hours. Plasma samples were assayed for the concentration of the test compound using an on-line, solid phase extraction LC/MS/MS analysis system.
Samples were analyzed on a QSTAR Elite, hybrid quadrupole time-of-flight mass spectrometer (Applied Biosystems, Framingham, Mass.) coupled with a Symbiosis Pharma integrated, on-line SPE-HPLC system (Spark Holland Inc., Plainsboro, N.J.). Analyst QS 2.0 software was used for instrument control, data acquisition and processing. […] Mobile Phase A consisted of 0.1% ammonium hydroxide in water and Mobile Phase B consisted of 0.1% formic acid in acetonitrile. Pharmacokinetic analyses were performed using WinNonlin software version 5.2 (Pharsight Corporation, Mountain View, Calif.).
As determined from the plasma concentration versus time curves, the time to peak and peak exposure are represented by the values Tmax and Cmax, respectively. The AUC values (nM*hr) shown were calculated as the areas under the plasma concentration versus time curves from time zero through the time of the last observable value and represent the total exposure of the compound over the course of the study. Half-life values or the amount of time required for the plasma levels of the compound to decline to half the initial value are represented as t1/2.

[6] = tested on: ova-sensitized, ova-challenged mice; assay: Bronchodilator assay in ovalbumin-sensitized mice (Penh, methacholine); assay type: in vivo, mouse; settings: for log10AUC (penh): bronchodilator dosing paradigm
Protocol: Male BALB/c mice were ordered from Charles River Laboratories (Raleigh, N.C.). The animals were approximately 19 to 21 grams at time of receipt. Upon arrival, the animals were randomized into groups of five males per cage and assigned to a dosing group. Animals were quarantined for 7 days under test conditions. They were observed daily for general health status and ability to adapt to the water bottles.
Animals were sensitized on day 0 and 14 of study by an intraperitoneal injection with 20 μg of ovalbumin (ova) and 2.0 mg aluminum hydroxide (alum) which initiates the development of a specific T-helper (Th) cells type 2 resulting in asthmatic animals. One group of animals received an injection of saline to use as non-asthmatic control animals. All animals were challenged with aerosolized 1% ova once daily for 25 minutes on days 28, 29, and 30 (Zosky, et al. Respiratory Research. 2004; 5:15). Aerosol challenge consists of using an Aerogen Aeroneb nebulizer and controller with a particle size of 4-6 μm mass median aerodynamic diameter (MMAD) with a distribution of 400 μl per minute. This aerosol challenge is necessary to target the Th2-driven allergic inflammation in the lower airways.
The test compounds and the control vehicle were administered to animals on the day of airway hyperreactivity evaluation 30 minutes to 1 hour before the evaluation to determine the bronchodilator effects of the compounds according to the bronchodilator dosing paradigm (FIG. 8). Compounds were administered p.o. (orally), i.p. (intraperitoneally) at 15 μMol/kg unless otherwise noted (Table 6). Alternatively, compounds were administered i.t. (intratracheally) at varying doses as shown (FIG. 9). On day 32 of the experiment, airway hyperreactivity was evaluated by placing conscious, unrestrained animals in a whole body plethysmometer (Buxco Wilmington, N.C.) and exposing them to escalating doses of nebulized methacholine, a known bronchial constrictor which acts through the muscarinic receptors of the lungs, (doses: 0.325-50 mg/ml). Exposure to the methacholine doses consisted of a 3 minute period during which a nebulizer was aerosolizing the methacholine and an additional 3 minute period following the cessation of nebulization. Over this 6 minute period, the plethysmometer monitors and generates numerical values for all parameters of the breath pattern. Enhanced pause (Penh), a unitless index of airway hyperreactivity, is derived from the expiratory side of the respiratory waveform measured via the plethysmograph and is used as an indirect measure of airway resistance and hyperreactivity. […] Following the methacholine dose response, all animals were anesthetized, bled and euthanized.
Within each experiment, a mouse was given a single compound and exposed to increasing doses of methacholine [0 (baseline), 0.375, 0.75, 1.5, 3, 6, 12, 25, 50 mg/ml]. The Penh value at each of the dose levels of methacholine represents the 6-minute average response. Change from baseline (CFB) in Penh was calculated at each methacholine dose and the area under the curve (AUC) for these CFB values was calculated using the trapezoidal rule. This same approach was applied for each mouse across multiple experiments.
For statistical analyses, a linear mixed-effects model where the response was the log 10 transformed value of AUC described above was used. Data from equal experimental conditions across experiments performed on different days were pooled for statistical analysis and data reporting. The various compounds were compared adjusting for the log 10-transformed baseline value of Penh and the chamber (1 of 10) of the plethysmometer each mouse was contained in during an experiment. A random intercept for each experiment was assumed to account for possible similarities of the results obtained from a given experiment (i.e., as a “blocking effect”). […] Computations were performed using PROC MIXED (SAS Version 9.1). […]

[7] = tested on: ova-sensitized, ova-challenged mice; assay: In vivo anti-inflammatory assay in ovalbumin-sensitized mice (BALF eosinophils and cytokines); parameters: species or system mouse
Text: A mouse model of asthma via ovalbumin sensitization was created as described in Example 23. The anti-inflammatory dosing paradigm (FIG. 10) was utilized to evaluate the anti-inflammatory effects of experimental compounds. The anti-inflammatory dosing paradigm consists of dosing the animals once a day starting on day 27 and finishing on either day 30 or 31 (1 hr prior to the aerosolized ovalbumin challenges on days 28 to 30) but not on day 32 when hyperreactivity evaluation occurs.
Bronchoalveolar lavage fluid (BALF) was collected by infusing 3.0 ml of saline with 10% fetal calf serum into the lungs via the trachea and then withdrawing the fluid. The total amount of cells/ml of BALF fluid was determined via manual cell count on hemocytometer. The BALF was centrifuged, supernatant removed and analyzed for cytokine concentrations as described below, and cell pellet reconstituted in 500 μL of fluid. Cytospin slides were prepared from the cell pellet using 100 μL of fluid and spinning samples for 5 minutes at 5000 rpms in a cytospin centrifuge. Following Hema3 stain, relative percentages of individual leukocytes were determined on a 200 cell count for each sample. The final concentration of individual leukocyte cell types per ml of BALF was determined by multiplication of the relative percentage of individual leukocytes with the total amount of cells/ml of BALF fluid.
The concentrations of cytokines in the BALF samples were determined using commercially available Bio-plex kits (Bio-Rad) for the detection of mouse IL-5, IL-13, and Eotaxin. The analysis of cytokine levels was measured using the Bio-Plex 200 (Bio-Rad) system according to the manufacturer's instructions.

[8] = tested on: LPS-challenged mice; assay: LPS-induced neutrophilia and cytokine production assay; assay type: in vivo, mouse; settings: for IL-1β levels in BALF: intratracheal administration, LPS-challenged mice, FIG. 18
Protocol: Male BALB/c mice, approximately 19 to 21 grams, were ordered from Charles River Laboratories (Raleigh, N.C.). All animals were challenged with aerosolized LPS (10 μg/ml) for 25 minutes on study day 0. LPS aerosol was generated using an Aerogen Aeroneb nebulizer and controller providing a flow of 400 μl/min and a particle size of 2-4 μm MMAD. Rolipram was administered i.p at 20 mg/kg. […] Four hours following LPS challenge, BALF was collected using a total of 3 ml of 0.9% sodium chloride containing 10% fetal calf serum. Total cell counts were determined using the Coulter Counter. For differential evaluations, BALF was centrifuged and cytospin slides prepared and stained with Hema3 stain. Manual leukocyte counts were then completed on 200 cells. The final concentration of individual leukocyte cell types per ml of BALF was determined by multiplication of the relative percentage of individual leukocytes with the total amount of cells/ml of BALF fluid. The concentration of IL-1β in the BALF samples was determined using commercially available Bio-plex kits (Bio-Rad). The analysis of cytokine levels was measured using the Bio-Plex 200 (Bio-Rad) system according to the manufacturer's instructions.

[9] = tested on: rat tracheal rings pretreated with vehicle or IL-1β and TNF-α; assay: Effect of inflammatory cytokines on tracheal relaxation; settings: FIG. 7
Protocol: Male Sprague-Dawley rats weighing 301-325 gm were sacrificed by asphyxiation in a CO2 chamber. Trachea were excised, cleaned of connective tissue and cut into cylindrical segments of 2-3 mm length. Tissues were treated for 18 hours at 37° C. in F12 media with penicillin-streptomycin and 0.1% BSA alone or with 10 ng/ml IL-1β and 100 ng/ml TNF-α. Tissues were then washed free of cytokines with Krebs buffer. Contractile tensions were measured using an isometric force transducer (Grass Instruments) as described for Example 3 and signals were analyzed using specialized software (Chart v5.5, ADInstruments). Tissues were treated with 300 nM carbachol for 10 to 15 minutes to induce a contractile response. Test Compounds were added cumulatively to the bath every 30 minutes and reductions in tension were recorded. Basal tension was subtracted from all values and data were reported as a percentage of the maximal carbachol-induced contraction. Data were fit to the Hill equation using GraphPad Prism v5 software.

[10] = rat, oral, 20-30 μmol/kg, plasma, mean of n = 3

Structure (SMILES)	airway hyperreactivity [1]	Percent inhibition, ERK1 ([2]; 1 μM test compound)	Percent inhibition, ERK1 ([2]; 10 μM test compound)	Percent inhibition, ERK2 ([3]; 1 μM test compound)	Percent inhibition, ERK2 ([3]; 10 μM test compound)	Percentage of carbachol-induced contraction at 1 μM compound, Avg % [4]	Percentage of carbachol-induced contraction at 10 μM compound, Avg % [4]	pIC50 [4]	Trachael Ring Contraction, % [4]	log10AUC (penh) ([6]; 15 μmol/kg oral)	reduction in airway hyperresponsiveness ([6]; oral doses)	IL-1β levels in BALF [8]	further results
OCCn1ccc2cc(CN3CC[C@@H](Nc4cccc5cnccc45)C3)ccc21 [Compound 2.066, (R)-2-(5-((3-(isoquinolin-5-ylamino)pyrrolidin-1-yl)methyl)-1H-indol-1-yl)ethanol]	prevention of airway hyperreactivity	52%	15%	50%	12%	–	–	–	–	–	–	–	–
c1cc2cc(CN3CCC[C@@H](Nc4ccc5[nH]ncc5c4)C3)ccc2o1 [Compound 1.131, (R)-N-(1-(benzofuran-5-ylmethyl)piperidin-3-yl)-1H-indazol-5-amine]	–	–	–	–	–	37.4%	14.2%	6.61	37%	2.0283	statistically significant reduction	–	airway hyperreactivity to methacholine ([1]; oral 15 μMol/kg once a day during days 27 to 31, methacholine on Day 32): prevention of airway hyperreactivity; plasma and lung tissue concentrations after oral dosing ([5]; oral dosing, refers to Table 13 and Table 15): high plasma and lung tissue concentrations; eosinophils per ml of BALF (airway eosinophil infiltration) ([7]; dosed orally to day 31, anti-inflammatory dosing paradigm, FIG. 11): reduced
NC(=O)Cn1ccc2cc(CN3CC[C@@H](Nc4cccc5cnccc45)C3)ccc21 [Compound 2.059, (R)-2-(5-((3-(isoquinolin-5-ylamino)pyrrolidin-1-yl)methyl)-1H-indol-1-yl)acetamide]	prevention of airway hyperreactivity	37%	4%	56%	12%	–	–	–	–	–	–	reduction	–
CS(=O)(=O)Nc1cccc(CN2CCC[C@H](Nc3ccc4[nH]ncc4c3)C2)c1 [Compound 1.091, (S)-N-(3-((3-(1H-indazol-5-ylamino)piperidin-1-yl)methyl)phenyl)methanesulfonamide]	–	–	–	–	–	35.4%	14.3%	6.99	35%	2.2309	did not yield a significant reduction	reduction	LPS-induced pulmonary neutrophilia influx ([8]; intratracheal dosing one hour prior to LPS challenge, FIG. 17): significant reduction; also recorded: dose-dependent inhibition; oral bioavailability ([5]; oral dosing): poor oral bioavailability; AUC (0-last) [5, 10]: BLQ; Cmax [5, 10]: BLQ; Tmax [5, 10]: BLQ; Vz_F [5, 10]: BLQ; t½ [5, 10]: BLQ; log10AUC (penh) ([6]; 5 μmol/kg intratracheal): 1.8127; log10AUC (penh) ([6]; 15 μmol/kg intraperitoneal): 2.0096; reduction in airway hyperresponsiveness ([6]; i.p. route, compared to oral dosing): enhanced reduction; bronchodilatory response ([6]; intratracheal administration): robust bronchodilatory response; eosinophils in BALF ([7]; dosed i.t. to day 30, anti-inflammatory dosing paradigm, FIG. 12): reduction of eosinophils; relaxation of tracheal rings, cytokine-pretreated tissues ([9]; 10 ng/ml IL-1β and 100 ng/ml TNF-α for 18 hours, 300 nM carbachol): fully efficacious; relaxation of tracheal rings, vehicle-pretreated tissues ([9]; 300 nM carbachol): fully efficacious; potency in cytokine-pretreated versus vehicle-pretreated tissues [9]: slightly more potent in cytokine-pretreated tissues
